# Test results published in PubChem BioAssay (NCI).
#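 Each compound was tested at five concentrations against cells in 96-well plates for 48 hours. GI50 marks 50% less growth. TGI marks complete inhibition of growth.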
# Legend:
# Assay in all cases: DTP human tumour cell line panel, 48 h
# ACHN renal = tested on: ACHN renal
# HT29 colon = tested on: HT29 colon
# UACC-62 melanoma = tested on: UACC-62 melanoma
# A498 renal = tested on: A498 renal
# SK-MEL-28 melanoma = tested on: SK-MEL-28 melanoma
# DU-145 prostate = tested on: DU-145 prostate
# SF-539 CNS = tested on: SF-539 CNS
# SN12C renal = tested on: SN12C renal
# OVCAR-8 ovarian = tested on: OVCAR-8 ovarian
# HCT-15 colon = tested on: HCT-15 colon
# U251 CNS = tested on: U251 CNS
# 786-0 renal = tested on: 786-0 renal
# LOX IMVI melanoma = tested on: LOX IMVI melanoma
# SK-OV-3 ovarian = tested on: SK-OV-3 ovarian
# HCT-116 colon = tested on: HCT-116 colon
# NCI/ADR-RES ovarian = tested on: NCI/ADR-RES ovarian
# OVCAR-5 ovarian = tested on: OVCAR-5 ovarian
# M14 melanoma = tested on: M14 melanoma
# HOP-92 NSCLC = tested on: HOP-92 NSCLC
# NCI-H460 lung = tested on: NCI-H460 lung
# SK-MEL-5 melanoma = tested on: SK-MEL-5 melanoma
# KM12 colon = tested on: KM12 colon
# IGROV1 ovarian = tested on: IGROV1 ovarian
# T-47D breast = tested on: T-47D breast
# NCI-H522 lung = tested on: NCI-H522 lung
# SNB-19 CNS = tested on: SNB-19 CNS
# K-562 leukemia = tested on: K-562 leukemia
# NCI-H226 lung = tested on: NCI-H226 lung
# A549 NSCLC = tested on: A549 NSCLC
# SF-268 CNS = tested on: SF-268 CNS
# MDA-MB-435 = tested on: MDA-MB-435
# CAKI-1 renal = tested on: CAKI-1 renal
# SK-MEL-2 melanoma = tested on: SK-MEL-2 melanoma
# PC-3 prostate = tested on: PC-3 prostate
# UO-31 renal = tested on: UO-31 renal
# HL-60(TB) leukemia = tested on: HL-60(TB) leukemia
# EKVX NSCLC = tested on: EKVX NSCLC
# MCF7 breast = tested on: MCF7 breast
# SW-620 colon = tested on: SW-620 colon
# COLO 205 colon = tested on: COLO 205 colon
# HCC-2998 colon = tested on: HCC-2998 colon
# UACC-257 melanoma = tested on: UACC-257 melanoma
# OVCAR-4 ovarian = tested on: OVCAR-4 ovarian
# HOP-62 NSCLC = tested on: HOP-62 NSCLC
# MDA-MB-231 breast = tested on: MDA-MB-231 breast
# SNB-75 CNS = tested on: SNB-75 CNS
# TK-10 renal = tested on: TK-10 renal
# HS 578T breast = tested on: HS 578T breast
# SF-295 CNS = tested on: SF-295 CNS
# MOLT-4 leukemia = tested on: MOLT-4 leukemia
# MALME-3M melanoma = tested on: MALME-3M melanoma
# BT-549 breast = tested on: BT-549 breast
structure (smiles),measurement,setting,value
Cc1ccc(C2CC(c3ccc(Nc4nc(NCCO)nc(Nc5ccc(Cl)cc5)n4)cc3)=Nc3c(N)nc(N)nc3N2)cc1 (centres undefined),GI50,ACHN renal,1720 nM
same,TGI,ACHN renal,3090 nM
same,GI50,HT29 colon,1780 nM
same,TGI,HT29 colon,3560 nM
same,GI50,UACC-62 melanoma,1820 nM
same,TGI,UACC-62 melanoma,3390 nM
same,GI50,A498 renal,3850 nM
same,TGI,A498 renal,17700 nM
same,GI50,SK-MEL-28 melanoma,1770 nM
same,TGI,SK-MEL-28 melanoma,3160 nM
same,GI50,DU-145 prostate,1760 nM
same,TGI,DU-145 prostate,3190 nM
same,GI50,SF-539 CNS,1570 nM
same,TGI,SF-539 CNS,2970 nM
same,GI50,SN12C renal,1790 nM
same,TGI,SN12C renal,3380 nM
same,GI50,OVCAR-8 ovarian,1800 nM
same,TGI,OVCAR-8 ovarian,3690 nM
same,GI50,HCT-15 colon,1480 nM
same,TGI,HCT-15 colon,2950 nM
same,GI50,U251 CNS,1600 nM
same,TGI,U251 CNS,3010 nM
same,GI50,786-0 renal,1640 nM
same,TGI,786-0 renal,3060 nM
same,GI50,LOX IMVI melanoma,1650 nM
same,TGI,LOX IMVI melanoma,3070 nM
same,GI50,SK-OV-3 ovarian,2690 nM
same,TGI,SK-OV-3 ovarian,7330 nM
same,GI50,HCT-116 colon,1620 nM
same,TGI,HCT-116 colon,2970 nM
same,GI50,NCI/ADR-RES ovarian,1730 nM
same,TGI,NCI/ADR-RES ovarian,3480 nM
same,GI50,OVCAR-5 ovarian,1620 nM
same,TGI,OVCAR-5 ovarian,3010 nM
same,GI50,M14 melanoma,1840 nM
same,TGI,M14 melanoma,3320 nM
same,GI50,HOP-92 NSCLC,1300 nM
same,TGI,HOP-92 NSCLC,2860 nM
same,GI50,NCI-H460 lung,1800 nM
same,TGI,NCI-H460 lung,3390 nM
same,GI50,SK-MEL-5 melanoma,1560 nM
same,TGI,SK-MEL-5 melanoma,2910 nM
same,GI50,KM12 colon,1970 nM
same,TGI,KM12 colon,3860 nM
same,GI50,IGROV1 ovarian,1650 nM
same,TGI,IGROV1 ovarian,3140 nM
same,GI50,T-47D breast,1670 nM
same,TGI,T-47D breast,3650 nM
same,GI50,NCI-H522 lung,1720 nM
same,TGI,NCI-H522 lung,3470 nM
same,GI50,SNB-19 CNS,1570 nM
same,TGI,SNB-19 CNS,3000 nM
same,GI50,K-562 leukemia,1340 nM
same,TGI,K-562 leukemia,3920 nM
same,GI50,NCI-H226 lung,16700 nM
same,TGI,NCI-H226 lung,38400 nM
same,GI50,A549 NSCLC,1740 nM
same,TGI,A549 NSCLC,3440 nM
same,GI50,SF-268 CNS,1810 nM
same,TGI,SF-268 CNS,3640 nM
same,GI50,MDA-MB-435,1730 nM
same,TGI,MDA-MB-435,3130 nM
same,GI50,CAKI-1 renal,1640 nM
same,TGI,CAKI-1 renal,3060 nM
same,GI50,SK-MEL-2 melanoma,1810 nM
same,TGI,SK-MEL-2 melanoma,3400 nM
same,GI50,PC-3 prostate,1740 nM
same,TGI,PC-3 prostate,3600 nM
same,GI50,UO-31 renal,1640 nM
same,TGI,UO-31 renal,3000 nM
same,GI50,HL-60(TB) leukemia,1710 nM
same,TGI,HL-60(TB) leukemia,4710 nM
same,GI50,EKVX NSCLC,1550 nM
same,TGI,EKVX NSCLC,2970 nM
same,GI50,MCF7 breast,1460 nM
same,TGI,MCF7 breast,3010 nM
same,GI50,SW-620 colon,1790 nM
same,TGI,SW-620 colon,3310 nM
same,GI50,COLO 205 colon,1670 nM
same,TGI,COLO 205 colon,3190 nM
same,GI50,HCC-2998 colon,1550 nM
same,TGI,HCC-2998 colon,2930 nM
same,GI50,UACC-257 melanoma,1840 nM
same,TGI,UACC-257 melanoma,3460 nM
same,GI50,OVCAR-4 ovarian,1850 nM
same,TGI,OVCAR-4 ovarian,3630 nM
same,GI50,HOP-62 NSCLC,1680 nM
same,TGI,HOP-62 NSCLC,3200 nM
same,GI50,MDA-MB-231 breast,1670 nM
same,TGI,MDA-MB-231 breast,3260 nM
same,GI50,SNB-75 CNS,1620 nM
same,TGI,SNB-75 CNS,3310 nM
same,GI50,TK-10 renal,1900 nM
same,TGI,TK-10 renal,3380 nM
same,GI50,HS 578T breast,1790 nM
same,TGI,HS 578T breast,4360 nM
same,GI50,SF-295 CNS,1630 nM
same,TGI,SF-295 CNS,3030 nM
same,GI50,MOLT-4 leukemia,1380 nM
same,TGI,MOLT-4 leukemia,3890 nM
same,GI50,MALME-3M melanoma,1700 nM
same,TGI,MALME-3M melanoma,3370 nM
same,GI50,BT-549 breast,1730 nM
same,TGI,BT-549 breast,3140 nM
